Reference: patent publication US5010064A, “Inclusion complexes of dipyridamole with cyclodextrins” (Edmond Pharma s.r.l., priority 1987, dated 1991)

Columns and labels:
[1] = tested on: platelet aggregation (ADP-induced) in platelet rich plasma of rabbits; assay: platelet aggregation inhibiting activity ex vivo; format: in vivo, New Zealand rabbit
Experimental: The platelet rich plasma (PRP) has been separated by centrifugation for 10 minutes and has been suitable diluted to have always 250,000-300,000 platelet/mm^3 with plasma free of platelets (obtained from blood samples by further centrifugation for 10 minutes at 3200 rpm.
The platelet aggregation has been measured by the turbidimetric method under continuous stirring at 37° C., after having added ADP (Adenosine diphosphate to PRP (1.5 μg/ml).

[2] = dog, oral, 75 mg active ingredient; 0 min
Experimental: (§1) Studies have been carried out on Beagle dogs (male and female; body weight 10-11 kg) following an experimental scheme in "cross over".
(§2) The blood has been collected in the presence of eparine (10 U.I./ml) and the plasma, separated by centrifugation, has been immediately frozen and stored at -20° C. until extraction. After about 10-20 days of storage, 0.2 ml of plasma has been drawn from each sample and mixed for 15 seconds with 0.5 ml of NaOH 1N. Thereafter, 4 ml of terbutylmethylether have been added and the whole has been stirred for 1 minute. In order to separate the aqueous phase from the organic phase the whole has been centrifuged for 5 minutes. The organic phase has been then removed and dried to dryness under nitrogen stream. […] An excitation wave length of 285 nm has been chosen in connection with an emission filter of 470 nm.

[3] = pH higher than 5.5-6; cited from earlier work
[4] = cited from earlier work
[5] = in vivo; conditions: dog, plasma, po, 75 mg
Experimental: as §1, §2

average plasma concentration of dipyridamole [2]: 0 | concentration at 10 min [5]: 8 ng/mL | concentration at 20 min [5]: 24 ng/mL | concentration at 0.5 h [5]: 784 ng/mL | concentration at 0.75 h [5]: 1620 ng/mL | concentration at 1 h [5]: 2840 ng/mL | concentration at 1.5 h [5]: 3960 ng/mL | concentration at 2 h [5]: 4710 ng/mL | concentration at 2.5 h [5]: 4730 ng/mL | concentration at 3 h [5]: 2930 ng/mL | concentration at 4 h [5]: 1970 ng/mL | concentration at 5 h [5]: 1290 ng/mL | concentration at 6 h [5]: 628 ng/mL | concentration at 7 h [5]: 360 ng/mL
Structure (SMILES): OCCN(CCO)c1nc(N2CCCCC2)c2nc(N(CCO)CCO)nc(N3CCCCC3)c2n1 [dipyridamole, 2,2',2",2"'-(4,8-dipiperidinopyrimido/5,4,d/-pyrimidine-2,6-diyldinitrilo)tetraethanol]
% platelet aggregation ([1]; 10 mg/kg os, 0 hr): 83 ± 3.0% | % platelet aggregation ([1]; 10 mg/kg os, 0.5 hr): 63 ± 3.7% | % platelet aggregation ([1]; 10 mg/kg os, 1 hr): 44 ± 3.2% | % platelet aggregation ([1]; 10 mg/kg os, 2 hr): 40 ± 2.9% | % platelet aggregation ([1]; 10 mg/kg os, 4 hr): 49 ± 2.7% | % platelet aggregation ([1]; 20 mg/kg os, 0 hr): 87 ± 3.2% | % platelet aggregation ([1]; 20 mg/kg os, 0.5 hr): 58 ± 5.9% | % platelet aggregation ([1]; 20 mg/kg os, 1 hr): 29 ± 4.1% | % platelet aggregation ([1]; 20 mg/kg os, 2 hr): 27 ± 3.8% | % platelet aggregation ([1]; 20 mg/kg os, 4 hr): 38 ± 3.9% | solubility in water [3]: poor soluble in water | blood level at which not pharmacologically active ([4]; in vivo): 0.5-1 γ/ml | blood level with undesired side effects (cephalea and nausea) ([4]; in vivo): 2000 to 2500 ng/mL | adsorption ([4]; in words): not well adsorbed | variability of blood levels between and within subjects ([4]; in words): blood levels different from one to another subject and for repeated administrations in the same subject | blood level needed to be active as platelet aggregation inhibiting agent ([4]; man): higher than 1 mcg/ml | upper blood level (might show side effects such as cephalea and nausea) ([4]; man): 2.0 to 2.5 µg/mL
